We go through six compounds from US4542027A, “Laidlomycin phenylcarbamate” (Syntex (U.S.A.) Inc., priority 1984, dated 1985).

Where two headings read alike, the source gives them in different places.

The conditions of data set [1]: U.S. Pat. No. 3,794,732; cited from earlier work.
Data set [2] in a line: Stability in soybean millrun feed premix at 60° C. It is filed as physicochemical. The settings on record: soybean millrun feed premix; 60° C., one week, soybean millrun premix, 10% (w/w). On the procedure: These materials were then stored at 60° C. and analyzed for starting material at one week. The premix composition is given in Table 5 and the stability data in Table 6.

The subject of data set [3] is rumen fluid. Kind of data set: Propionic acid production (VFA) in in vitro rumen fluid fermentation. It is filed as cell-based, steer. Also on record: Propionic acid production rate: unit not given here. The settings on record: 9 h. On the procedure: (§1) Two separate fermentation models were used to evaluate effects of laidlomycin and laidlomycin phenylcarbamate upon volatile fatty acids (VFA) and lactic acid production. Test compounds were solubilized in absolute ethanol at concentrations of 1 mg/ml and were serially diluted twofold in absolute ethanol through six additional concentrations. Aliquots of 200 μl were transferred to 18×150 mm test tubes, which were used as incubation vessels, and the ethanol was evaporated.
(§2) For both fermentation models rumen fluid from a rumen-fistulated steer, consuming a 100% alfalfa hay diet, was obtained before the morning feeding. The fluid was strained through four layers of cheesecloth, mixed with an equal volume of CO2 -saturated buffer, and 10 ml was transferred to each of the incubation vessels. All tubes were fitted with gas-release stoppers under an atmosphere of CO2 and were incubated in a shaking waterbath at 39° C. […] This medium, designed to be microbiologically nonselective, encouraged VFA production with no accumulation of lactic acid. Buffer used to study lactic acid accumulation (table 1) contained 150 mmol of glucose/liter and had little buffering capacity. This medium favored growth of lactic acid-producing bacteria and allowed rapid production of lactic acid coupled with a precipitous drop in pH from pH 6.2 to less than pH 5 during the course of an incubation.
(§3) Fermentation was terminated at 9 h for the VFA fermentations and at 5.5 h for the lactic acid fermentations by addition of 2 ml of 25% metaphosphoric acid to the incubation tubes. Aliquots were frozen overnight, thawed, centrifuged at 30,000 × g for 10 min and the resulting supernatants analyzed for either L(+)-lactic acid or VFA. The L(+)-lactic acid was analyzed via a specific enzymatic assay in which the concentration of lactic acid in the fermentation broth was quantified by the increase in absorbance of light at 340 nm when nicotinamide adenine dinucleotide was reduced by lactic acid with the aid of L(+)-lactic dehydrogenase. VFA were analyzed via gas chromatography using a Varian chromatograph equipped with a flame ionization detector. Acids were separated on a glass column (0.64×182.9 cm) packed with 10% SP-1200/1% H3 PO4 on Chromosorb-WAW®, 80-100 mesh. This column was obtained pre-packed from Supelco, Inc., Bellefont, Pennsylvania. Chromatographic conditions included a column temperature of 145° C., an injector temperature of 190° C., a detector temperature of 190° C., a carrier gas flow of 45 ml/min and an injection volume of 1 μl.
(§4) Net production rates of all acids were calculated by subtracting the concentration of acids in the incubation fluid before incubation from the concentration determined in each tube after incubation. Molar proportions of acetic, propionic, and butyric acids produced were calculated by dividing the production rate of individual acids by the sum of the production rates of the three acids. Data were analyzed by analysis of variance (SAS, 1979). Comparisons (Duncan's multiple range test) of individual means were made when treatment effects (P<0.05) were indicated.

The subject of data set [4] is rumen fluid. Kind of data set: L(+)-Lactic acid production in in vitro rumen fluid fermentation. It is filed as cell-based, steer. Also on record: Lactic acid production rate: unit not given here. As to conditions: 5.5 h. On the procedure: as §1, §2, §3, §4
Another data set deals with Gram positive bacteria. As to conditions: Journal of Antibiotics 1974, 1976; cited from earlier work.
Data set [5] in a line: Stability at 60° C. in methanol-water, acetate buffer. It is filed as physicochemical. As to conditions: methanol-water, acetate buffer. On the procedure: Laidlomycin phenylcarbamate, laidlomycin isopopylcarbamate and two laidlomycin esters were prepared and their relative stability at 60° C. methanol-water, acetate buffer was determined. A complete list of the esters and carbamates which were tested under these conditions follows: […]

Regarding `CC[C@@]1([C@@H]2O[C@@H]([C@H]3O[C@@](O)(CO)[C@H](C)C[C@@H]3C)C[C@@H]2C)CC[C@H]([C@]2(C)CC[C@]3(C[C@H](O)[C@@H](C)[C@@H]([C@@H](C)[C@@H](OC)[C@H](C)C(=O)O)O3)O2)O1` [Monensin], the “Increasing feed utilization in ruminants” value in data set [1] is on record as “useful in increasing feed utilization in ruminants”.

In the case of `CCC(=O)OC(C(C)C(=O)O)C(C)C1OC2(CCC(C)(C3CCC(C)(C4OC(C5OC(O)(COC(=O)C(C)C)C(C)CC5C)CC4C)O3)O2)CC(O)C1C` (stereo not shown) [Laidlomycin isobutyrate, reference compound], the share remaining at 168 h in data set [2] was found to be 70%.

`CCC(=O)OC(C(C)C(=O)O)C(C)C1OC2(CCC(C)(C3CCC(C)(C4OC(C5OC(O)(CO)C(C)CC5C)CC4C)O3)O2)CC(O)C1C` (stereo not shown) [Laidlomycin, laidlomycin]: the “Propionic acid production rate” value is reported as 21.1 in the data set on rumen fluid [3] (0.31 μg/ml); 20.9 in the data set on rumen fluid [3] (1.25 μg/ml); 21.8 with rumen fluid [3] (2.50 μg/ml); 22.2 in the data set with rumen fluid [3] (5.00 μg/ml); 23.1 with rumen fluid [3] (10.00 μg/ml); 23.2 in the data set with rumen fluid [3] (20.00 μg/ml). Besides, the figures for the “Propionic acid production, percentage of control” value in the data set on rumen fluid [3] (10.00 μg/ml) and in the data set with rumen fluid [3] (20.00 μg/ml) were 108 % of control and 109 % of control, respectively. The activity at 0.31 µg/mL in the data set on rumen fluid [3] (0.31 μg/ml, read-out: Propionic acid production, percentage of control) was 99%; with rumen fluid [4] (0.31 μg/ml, read-out: Lactic acid production, percentage of control), 101%. Further, the activity at 1.25 µg/mL in the data set on rumen fluid [3] (1.25 μg/ml, read-out: Propionic acid production, percentage of control) is 98%; in the data set on rumen fluid [4] (1.25 μg/ml, read-out: Lactic acid production, percentage of control), 94%. The activity at 2.5 µg/mL in the data set on rumen fluid [3] (2.50 μg/ml, read-out: Propionic acid production, percentage of control) is 102%; in the data set with rumen fluid [4] (2.50 μg/ml, read-out: Lactic acid production, percentage of control), 115%. The activity at 5 µg/mL in the data set with rumen fluid [3] (5.00 μg/ml, read-out: Propionic acid production, percentage of control) was found to be 104%; with rumen fluid [4] (5.00 μg/ml, read-out: Lactic acid production, percentage of control), 95%. For the same compound, the activity at 10 µg/mL in the data set on rumen fluid [3] (10.00 μg/ml, read-out: Propionic acid production, percentage of control) is 108%; in the data set on rumen fluid [4] (10.00 μg/ml, read-out: Lactic acid production, percentage of control) it was 77%. In addition, the activity at 20 µg/mL was determined as 109% in the data set on rumen fluid [3] (20.00 μg/ml, read-out: Propionic acid production, percentage of control) and 81% in the data set on rumen fluid [4] (20.00 μg/ml, read-out: Lactic acid production, percentage of control). For the same compound, the activity at 0.62 µg/mL in the data set with rumen fluid [3] (read-out: Propionic acid production, percentage of control, 0.62 μg/ml, 9 h) came to 98%; in the data set with rumen fluid [4] (0.62 μg/ml, read-out: Lactic acid production, percentage of control), 110%. Moreover, the “Lactic acid production rate” value worked out at 28.3 in the data set with rumen fluid [4] (0.31 μg/ml); 30.7 in the data set with rumen fluid [4] (0.62 μg/ml); 26.4 with rumen fluid [4] (1.25 μg/ml); 32.0 in the data set with rumen fluid [4] (2.50 μg/ml); 26.5 with rumen fluid [4] (5.00 μg/ml); 21.6 in the data set on rumen fluid [4] (10.00 μg/ml). Besides, the “Lactic acid production rate” value with rumen fluid [4] (20.00 μg/ml) worked out at 22.7. For the same compound, in the data set on rumen fluid [4] (20.00 μg/ml), the “Lactic acid production, percentage of control” value was 81 % of control. Further, the “Growth inhibition of Gram positive bacteria” value in the data set on Gram positive bacteria is given as “inhibits the growth of Gram positive bacteria”.

In data set [5], `CCCC(=O)O` [butyrate] gave a half-life of 22.3 h.

For the compound `CCC(=O)OCC1(O)OC(C2CC(C)C(C3(C)CCC(C4(C)CCC5(CC(O)C(C)C(C(C)C(OC(=O)CC)C(C)C(=O)O)O5)O4)O3)O2)C(C)CC1C` (stereo not shown) [Laidlomycin propionate, reference compound], the half-life in data set [5] (60° C., read-out: t1/2 (converted)) was 11.1 h. The same compound gave an amount remaining at 168 h in data set [2] of 59%.

Regarding “laidlomycin isopopylcarbamate [isopropylcarbamate]”, the t1/2 in data set [5] (60° C.) was found to be 501.8 h.
